Key:
schizophrenia [1] = assay: case report: schizophrenia, fish oil switched to ethyl-EPA; type: in vivo, human
Description: This provided around 1.9 g/day of EPA and 0.6 g/day of DHA. They were not taking other antipsychotic drugs. […] However, when they did this the symptoms returned and it was concluded that they had to take around 2 g/day of EPA to remain well. When the purified ethyl-EPA became available, they were switched to 4×0.5 g capsules, also providing around 2 g/day. […] They therefore dropped the dose to 1 g/day.

dementia = assay: case report: person with dementia; type: in vivo, human; conditions: 4x0.5 g capsules per day, within four weeks
Description: Dementia: A person developed dementia, probably of Alzheimer type but possibly with multi-infarct contributions because of associated cardiovascular disease. As often occurs they also became withdrawn and depressed but, unfortunately, this state was interrupted by irrational and violent outbursts, usually directed at members of their family, but also sometimes against complete strangers. They were tried on two cholinergic drugs: although these produced a small improvement in their cognitive state they did nothing for their depression, irritability and anger. They were tried on a dose of 4×0.5 g capsules of pure ethyl-EPA, two given in the morning and two in the evening. […] Their family also thought their cognition had improved but this is difficult to be certain of because of their improved mood.

schizophrenia [2] = assay: case history: schizophrenia, E-EPA added to clozapine; type: in vivo, human; conditions: 2 g/day in addition to clozapine 900 mg/day
Description: This mechanism is thought to be responsible for their rapid effects on the so-called “positive” symptoms of schizophrenia (such as hallucinations, delusions and thought disorder). […] The D2 blocking action is also responsible for many of the adverse effects of these drugs, which include extrapyramidal movement disorders, excess prolactin secretion, and tardive dyskinesias. Examples of widely used drugs in this class include chlorpromazine, thioridazine, haloperidol, pimozide, flupenthixol and sulpiride.
These may include blockade of one or more of the other dopamine receptors such as D1, D3 or D4, and also usually including blockade of one or more classes of serotonin receptors. […] They may also have actions at other receptors, including histamine, glutamate and acetyl choline receptors.
The patient was treated with clozapine, eventually reaching a maximum dose of 900 mg/day.
E-EPA in a dose of 2 g/day was then administered in addition to clozapine.

schizophrenic breakdown = conditions: 2 g/day with olanzapine, after about 4 weeks
Description: In addition to citalopram they were then given 1 g/day of ethyl-EPA. […] Another case was a young person who dropped out of college with a schizophrenic breakdown.

Huntington's disease = assay: randomised double blind trial of 96% pure ethyl-EPA in Huntington's disease; type: in vivo, human; conditions: 2 g/day, 6 months
Protocol: Because early Huntington's disease may present with schizophrenia-like features, a randomised trial of 96% pure ethyl-EPA was set up in seven severely disabled patients in the final stages of Huntington's disease. All required 24 hour nursing care, had severe movement disorders, were irritable and were partially demented. They were randomised on a double blind basis to receive 2 g/day ethyl-EPA or 2 g/day placebo for 6 months. […] In four of the patients, two on ethyl-EPA and two on placebo, the brain degeneration was assessed at the beginning and end of the study by magnetic resonance imaging (MRI). MRI allows an accurate assessment of the size of the lateral ventricles, the fluid-filled spaces within the cerebral hemispheres. As Huntington's disease progresses, the lateral ventricles enlarge indicating loss of brain tissue. In the two patients on placebo over 6 months the ventricles enlarged as expected.

clozapine-induced hypersalivation (schizophrenia [2]): considerably reduced
SMILES: CC/C=C\C/C=C\C/C=C\C/C=C\C/C=C\CCCC(=O)OCC [ethyl-EPA]
recurrence of symptoms after dose reduction (schizophrenia [1]; 1 g/day): did not lead to a recurrence of symptoms
control of schizophrenia symptoms (schizophrenia [1]; 4x0.5 g capsules, around 2 g/day): controlled their symptoms very well
mood and irritability in dementia (dementia): remarkable improvement
effect on schizophrenic illness (schizophrenia [2]): dramatic within two weeks
clarity of thinking (schizophrenic breakdown): thinking more clearly
clinical course of Huntington's disease (Huntington's disease; three patients): improved
lateral ventricle size by MRI (Huntington's disease; two patients): reduction in lateral ventricle size

Source: US6384077B1, “Highly purified EPA for treatment of schizophrenia and related disorders” (Laxdale Limited, priority 1999, dated 2002)
